Experiments:
[1] = test system: HEK 293 hOCT2 cells; assay: MTT cell viability, HEK 293 hOCT2 cells; format: cell-based, human; conditions: HEK 293 hOCT2, cimetidine alone (10 or 100 μM), 10 min
Description: (§1) A modified 3-(4,5-dimethylthiazol-2-yl)-2,5-diphenyltetrazolium bromide (MTT) assay (Mosmann, [1983]) was used to test the chemosensitivity of cells to phenanthriplatin and, in some experiments, to cisplatin by determining the glycolysis rate via the reduction of the yellow tetrazolium salt MTT to a purple formazan dye, as previously described (Wehe et al., [2014]). Briefly, after growing for 24 h in the incubator, cells expressing or not hOCT2, hMATE1, hMATE2 or Ctr1 were treated for 10 min with platinum derivatives. Control cells were incubated with drug-free complete cell culture medium. Afterwards, the medium was carefully removed and replaced by 200 μL of fresh complete cell culture medium. After incubation for another 24 h, 10 μL of MTT solution containing 5 mg/mL of the dye were added to each well, and the cells were again incubated for 3 h. The medium was then removed and 100 μL of lysis buffer containing 10% (w/v) sodium dodecyl sulfate and 40% (v/v) dimethylformamide was added to each well. The plates were shaken for 10 min to destroy the cell structure and dissolve the blue formazan dye (Furchert et al., [2007]; Wehe et al., [2014]). Finally, the absorbance was measured at 590 nm using an automated microtiter plate reader (Infinite M200; Tecan, Männedorf, Switzerland). The percentage of viable cells in the untreated controls was compared to that for the various treatments. Experiments carried out with DAOY and UW228 cells followed a similar protocol except that these cells were incubated for 24 h with phenanthriplatin.

[2] = molecular target: T1, hMATE2K (Homo sapiens, UniProt Q86VL8); parameters: method as in Astorga et al., [2012]; conditions: ref Astorga et al., [2012]; cited from earlier work
T1 construct: expressed in transfected cells

[3] = molecular target: T2, hMATE1 (Homo sapiens, UniProt Q96FL8); parameters: method as in Astorga et al., [2012]; conditions: ref Astorga et al., [2012]; cited from earlier work
T2 construct: expressed in transfected cells
T2 sequence (Q96FL8 1-570): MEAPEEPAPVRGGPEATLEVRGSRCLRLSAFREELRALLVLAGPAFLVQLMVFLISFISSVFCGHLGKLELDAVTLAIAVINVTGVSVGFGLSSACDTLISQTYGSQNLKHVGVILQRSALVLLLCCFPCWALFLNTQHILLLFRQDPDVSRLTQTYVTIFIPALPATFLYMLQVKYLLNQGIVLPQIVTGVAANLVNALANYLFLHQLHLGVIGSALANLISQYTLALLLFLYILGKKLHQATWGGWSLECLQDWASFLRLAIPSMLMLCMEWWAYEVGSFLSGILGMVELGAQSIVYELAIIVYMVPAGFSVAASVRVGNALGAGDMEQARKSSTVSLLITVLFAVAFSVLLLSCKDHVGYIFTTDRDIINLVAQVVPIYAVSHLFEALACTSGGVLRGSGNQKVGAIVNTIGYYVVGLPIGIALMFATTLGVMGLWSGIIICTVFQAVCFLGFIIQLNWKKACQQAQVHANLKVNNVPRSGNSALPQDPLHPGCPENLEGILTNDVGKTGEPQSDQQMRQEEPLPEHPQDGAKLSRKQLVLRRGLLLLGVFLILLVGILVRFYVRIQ

[4] = test system: Ctr1^−/− MEFs; assay: MTT cell viability, Ctr1-/- MEFs; format: cell-based, mouse; conditions: 1 mM, 10 min
Description: as §1

[5] = molecular target: T2, hMATE1; assay: Inhibition of ASP+ uptake in HEK 293 cells expressing hMATE1; format: cell-based; conditions: inhibition of ASP+ uptake, HEK293 hMATE1, Supplementary Figure 1
Description: (§2) The interaction of phenanthriplatin with transporters for organic cations (OCT1-3, MATE1, and MATE2K) was investigated by measuring its effects on the uptake of the fluorescent organic cation 4-(4-dimethylamino)styryl-N-methylpyridinium (ASP^+). Microfluorometric measurements of ASP^+ uptake were performed with a fluorescence plate reader (Infinity 200, Tecan, Crailsheim, Germany; excitation at 465 nm, emission at 590 nm) as described previously for cultured HEK 293 cells (Wilde et al., [2009]). Before measurements, the culture medium in the wells of the 96 well microtiter plate containing HEK 293 cells was replaced by a HCO3- -free Ringer-like solution containing (in mM) NaCl 145, K2HPO4 1.6, KH2PO4 0.4, D-glucose 5, MgCl2 1, calcium gluconate 1.3, and pH adjusted to 7.4. Fluorescence was measured dynamically at 37°C in each well before and after ASP^+ addition to HCO3- -free Ringer-like solution, alone or together with increasing phenanthriplatin concentrations, and plotted versus time. ASP^+ (final concentration 1 or 10 μM for experiments with OCTs or MATEs, respectively) was added after the third sampling interval. Emission from the complete area of the well bottom was analyzed four times and averaged for each well. […] Background fluorescence was measured for each plate in wells with identical solutions containing no cells and subtracted from each well containing cells. Experiments were performed with cells from one passage of the same day with controls and test replicates in the same plate.
(§3) Data are presented as mean values ± SEM, with (n) referring to the number of wells. IC50 values defined as the concentration of platinum agent required to inhibit uptake of ASP^+ by 50% and EC50 values used to assess cell viability were obtained by sigmoidal concentration-response curve fitting using GraphPad Prism, Version 5.3 (GraphPad Software, San Diego, USA). […] For multiple comparisons, ANOVA with Bonferroni post-test was used. A P-value < 0.05 was considered statistically significant.

[6] = molecular target: T3, hOCT2 (Homo sapiens, UniProt O15244); assay: Inhibition of ASP+ uptake in HEK 293 cells expressing hOCT2; format: cell-based; conditions: HEK 293 hOCT2, 1 μM ASP+
T3 construct: expressed in transfected cells; gift of H. Koepsell
T3 sequence (O15244 1-555): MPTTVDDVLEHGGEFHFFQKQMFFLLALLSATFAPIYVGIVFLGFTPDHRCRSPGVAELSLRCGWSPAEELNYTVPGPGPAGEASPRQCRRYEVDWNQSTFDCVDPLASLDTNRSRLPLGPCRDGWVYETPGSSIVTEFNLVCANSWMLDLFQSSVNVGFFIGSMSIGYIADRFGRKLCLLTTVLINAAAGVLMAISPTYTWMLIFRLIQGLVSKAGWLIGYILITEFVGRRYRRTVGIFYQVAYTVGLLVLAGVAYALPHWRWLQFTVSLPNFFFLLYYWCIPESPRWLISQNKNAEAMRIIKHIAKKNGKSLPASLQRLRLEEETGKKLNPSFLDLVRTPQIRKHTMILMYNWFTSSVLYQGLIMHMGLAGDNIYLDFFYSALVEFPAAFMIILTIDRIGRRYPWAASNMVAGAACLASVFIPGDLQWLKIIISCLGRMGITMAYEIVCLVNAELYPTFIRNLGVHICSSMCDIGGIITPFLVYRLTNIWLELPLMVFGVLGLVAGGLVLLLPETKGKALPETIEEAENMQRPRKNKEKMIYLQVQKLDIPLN
Description: as §2, §3

[7] = test system: Ctr1^+/+ MEFs; assay: MTT cell viability, Ctr1+/+ MEFs; format: cell-based, mouse; conditions: 1 mM, 10 min
Description: as §1

[8] = molecular target: T4, hOCT1 (Homo sapiens, UniProt O15245); assay: Inhibition of ASP+ uptake in HEK 293 cells expressing hOCT1; format: cell-based; conditions: HEK 293 hOCT1, 1 μM ASP+
T4 construct: expressed in transfected cells; gift of H. Koepsell
T4 sequence (O15245 1-554): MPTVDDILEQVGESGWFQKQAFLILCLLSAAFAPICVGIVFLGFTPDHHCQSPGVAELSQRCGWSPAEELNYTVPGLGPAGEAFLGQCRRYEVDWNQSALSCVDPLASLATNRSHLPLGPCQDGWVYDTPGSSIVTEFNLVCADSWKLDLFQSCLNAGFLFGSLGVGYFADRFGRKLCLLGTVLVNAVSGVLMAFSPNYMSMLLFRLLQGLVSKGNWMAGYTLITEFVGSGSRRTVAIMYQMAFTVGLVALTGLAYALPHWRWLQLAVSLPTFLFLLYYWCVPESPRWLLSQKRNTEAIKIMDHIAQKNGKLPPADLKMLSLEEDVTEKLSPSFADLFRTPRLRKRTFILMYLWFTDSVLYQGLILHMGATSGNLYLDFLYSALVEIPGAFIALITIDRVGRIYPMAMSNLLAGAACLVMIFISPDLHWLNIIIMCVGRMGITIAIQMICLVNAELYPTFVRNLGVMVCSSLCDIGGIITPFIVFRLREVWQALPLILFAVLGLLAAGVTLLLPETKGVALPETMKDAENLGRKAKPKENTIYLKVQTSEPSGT
Description: as §2, §3

T1 sequence (Q86VL8 1-566 isoform Q86VL8-3): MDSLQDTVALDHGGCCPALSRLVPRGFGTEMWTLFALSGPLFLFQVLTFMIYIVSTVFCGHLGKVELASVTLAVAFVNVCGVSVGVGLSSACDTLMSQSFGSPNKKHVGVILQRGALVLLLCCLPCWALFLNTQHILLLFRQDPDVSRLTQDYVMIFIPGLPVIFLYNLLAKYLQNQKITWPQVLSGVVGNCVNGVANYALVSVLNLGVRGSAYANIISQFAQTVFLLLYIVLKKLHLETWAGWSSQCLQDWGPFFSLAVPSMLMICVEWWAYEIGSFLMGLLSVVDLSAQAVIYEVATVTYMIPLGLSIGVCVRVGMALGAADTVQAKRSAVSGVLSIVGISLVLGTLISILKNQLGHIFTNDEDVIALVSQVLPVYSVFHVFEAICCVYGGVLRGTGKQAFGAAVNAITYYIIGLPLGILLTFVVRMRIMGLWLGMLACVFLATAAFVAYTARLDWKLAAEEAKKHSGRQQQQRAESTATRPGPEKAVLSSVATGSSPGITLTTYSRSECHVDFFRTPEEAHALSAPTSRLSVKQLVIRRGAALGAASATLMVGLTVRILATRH

Structure (SMILES): CN/C(=N/CCSCc1nc[nH]c1C)NC#N [Cimetidine, cimetidine, reference compound]
- Cell viability (MTT) [1]: no significant effect on cell viability

Structure (SMILES): C[n+]1ccc(-c2ccccc2)cc1 [MPP^+, 1-methyl-4-phenylpyridinium]
- Affinity for hMATE2K [2]: 3.3 µM
- Affinity for hMATE1 [3]: 4.7 µM

Structure (SMILES): N.N.[Cl][Pt][Cl] [cisplatin, reference compound]
- Cell viability (MTT) [4]: no decrease in cell viability
- Interaction (affinity) with hMATE1 [5]: very low affinity
- IC50 [6]: 50 µM
- Cell viability (MTT) [7]: toxic to Ctr1^+/+
- IC50 [8]: 61 µM

— publication PMC5982655, “Interaction of the New Monofunctional Anticancer Agent Phenanthriplatin With Transporters for Organic Cations” (Frontiers in Chemistry, 2018)
